In ChEMBL document CHEMBL1140382, “11C-labeling of n-[4-[4-(2,3-dichlorophenyl)piperazin-1-yl]butyl]arylcarboxamide derivatives and evaluation as potential radioligands for PET imaging of dopamine D3 receptors” (J Med Chem, 2005):

Tests used:
[1] = target: T1, D(4) dopamine receptor (Rattus norvegicus, UniProt P30729); test: Binding affinity for rat dopamine D4 receptor using [11C] radiotracer
T1 sequence (P30729 whole entry): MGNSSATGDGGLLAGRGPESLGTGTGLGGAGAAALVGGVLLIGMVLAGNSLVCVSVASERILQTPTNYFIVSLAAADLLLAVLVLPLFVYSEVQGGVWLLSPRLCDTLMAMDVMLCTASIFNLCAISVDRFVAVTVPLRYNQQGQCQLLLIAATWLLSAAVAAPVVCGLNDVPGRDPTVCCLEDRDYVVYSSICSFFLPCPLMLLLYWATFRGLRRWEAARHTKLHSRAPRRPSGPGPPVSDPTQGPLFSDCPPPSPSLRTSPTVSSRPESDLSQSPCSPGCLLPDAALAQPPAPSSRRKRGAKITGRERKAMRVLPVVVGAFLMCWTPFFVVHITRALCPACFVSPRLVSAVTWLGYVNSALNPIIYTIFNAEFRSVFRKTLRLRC

[2] = target: D(2) dopamine receptor (Rattus norvegicus, UniProt P61169); test: Binding affinity towards rat dopamine D2 receptor using [11C] radiotracer
D(2) dopamine receptor, sequence (P61169 whole entry): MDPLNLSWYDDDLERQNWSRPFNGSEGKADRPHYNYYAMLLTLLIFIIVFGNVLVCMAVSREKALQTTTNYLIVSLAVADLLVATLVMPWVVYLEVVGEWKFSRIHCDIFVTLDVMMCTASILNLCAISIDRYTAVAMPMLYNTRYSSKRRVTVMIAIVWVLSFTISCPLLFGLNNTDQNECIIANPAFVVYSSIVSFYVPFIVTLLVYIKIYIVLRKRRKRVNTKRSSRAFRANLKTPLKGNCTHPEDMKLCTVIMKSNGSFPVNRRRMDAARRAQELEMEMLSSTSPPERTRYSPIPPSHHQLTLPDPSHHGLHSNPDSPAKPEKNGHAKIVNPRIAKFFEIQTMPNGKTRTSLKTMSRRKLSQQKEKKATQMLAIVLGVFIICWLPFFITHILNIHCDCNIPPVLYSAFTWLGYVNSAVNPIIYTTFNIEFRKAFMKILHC

[3] = target: Sigma non-opioid intracellular receptor 1 (Rattus norvegicus, UniProt Q9R0C9); test: Binding affinity for rat Opioid receptor sigma 1 using [11C] radiotracer
Sigma non-opioid intracellular receptor 1, sequence (Q9R0C9 whole entry): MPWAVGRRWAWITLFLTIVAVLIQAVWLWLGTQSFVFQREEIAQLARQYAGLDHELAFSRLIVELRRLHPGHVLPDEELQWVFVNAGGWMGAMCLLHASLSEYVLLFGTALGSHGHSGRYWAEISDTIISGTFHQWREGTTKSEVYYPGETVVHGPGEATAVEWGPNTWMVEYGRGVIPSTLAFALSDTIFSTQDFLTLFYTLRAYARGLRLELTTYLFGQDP

[4] = target: D(3) dopamine receptor (Rattus norvegicus) (UniProt P19020)
D(3) dopamine receptor (Rattus norvegicus), sequence (P19020 whole entry): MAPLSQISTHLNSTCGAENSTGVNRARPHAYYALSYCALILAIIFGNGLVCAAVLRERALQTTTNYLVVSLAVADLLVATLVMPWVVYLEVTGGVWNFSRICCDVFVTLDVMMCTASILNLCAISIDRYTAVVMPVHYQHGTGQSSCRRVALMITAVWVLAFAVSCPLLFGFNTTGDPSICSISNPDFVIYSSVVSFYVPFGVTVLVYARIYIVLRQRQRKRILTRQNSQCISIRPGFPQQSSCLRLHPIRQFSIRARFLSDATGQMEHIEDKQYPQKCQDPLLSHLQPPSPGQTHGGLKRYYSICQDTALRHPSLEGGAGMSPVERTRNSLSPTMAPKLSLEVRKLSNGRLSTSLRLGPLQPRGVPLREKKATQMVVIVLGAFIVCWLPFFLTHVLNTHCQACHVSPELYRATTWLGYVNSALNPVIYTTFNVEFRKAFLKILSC

[5] = target: D(3) dopamine receptor (Rattus norvegicus, UniProt P19020); test: Binding affinity for rat dopamine D3 receptor using [11C]GR-218,231
D(3) dopamine receptor, sequence (P19020 whole entry): as above

Ki [1] [nM] | Ki [2] [nM] | Ki [3] [nM] | pKi [4] | Ki [5] [nM] | Structure (SMILES)
830 | 720 | 342 |  |  | COc1c(C(=O)NCCCCN2CCN(c3cccc(Cl)c3Cl)CC2)ccc2ccccc12
 |  |  | 9 |  | CCCN(CCC)C1CCc2cc(CS(=O)(=O)c3ccc(OC)cc3)ccc2C1 (stereo not drawn)
 |  |  |  | 2 | COc1cc(Br)cc(C(=O)NCCCCN2CCN(c3cccc(Cl)c3Cl)CC2)c1OC
373 | 720 | 180 |  |  | COc1cccc2cc(C(=O)NCCCCN3CCN(c4cccc(Cl)c4Cl)CC3)oc12
